Reference: patent US20180133203A1, “METHODS OF TREATING LIVER DISEASE” (Gilead Sciences, Inc., priority 2016, published 2018)

Assays:
[1] = test system: CDHFD/NaNO2 rats; test: Liver hydroxyproline content in CDHFD/NaNO2 rat model of NASH; assay type: in vivo, male Wistar rats; details: vs vehicle-treated CDHFD/NaNO2 rats; Formula (I) 0.2% in diet, Formula (III) 30 mg/kg/day, week 4 to 14
Experimental: The following study was conducted to evaluate the efficacy of the combination of an ASK1 inhibitor and an FXR agonist in a rodent model of non-alcoholic steatohepatitis (NASH), relative to the efficacy of the individual agents alone in the model. NASH was induced in male Wistar rats by administration of a choline-deficient high fat diet (CDHFD) combined with the chronic administration of sodium nitrite (CDHFD/NaNO2). The model capitalizes on the “two hit theory” of NASH by inducing both metabolic dysfunction (CDHFD) and oxidative stress (NaNO2) in the liver to result in hepatic fibrosis that is similar in character and severity to that seen in patients with advanced NASH. Rats were fed CDHFD for a total of 14 weeks and were administered NaNO2 from week 4 to 14. […] The following endpoints were assessed at the completion of the 14 week study: i) liver fibrosis measured by liver hydroxyproline (OHP) content and by quantitative morphometric analysis of collagen content by Picosirius red (PSR) staining; ii) myofibroblast activation in liver sections as measured by quantitative IHC of the myofibroblast marker desmin; and, iii) Col1a1 and Timp1 in liver tissue measured by RT-PCR. […] All endpoints were assessed at the completion of the 14 week study protocol. […] The hydroxyproline content was determined photometrically by measuring the absorbance at 560 nm. […]

[2] = test system: FFD mice; test: Plasma bile acids by LC-MS/MS in FFD mouse model of NASH; assay type: in vivo, male C57BL/6 mice; details: Formula (I) 0.15% admixture in diet, Formula (III) 10 mg/kg PO QD, months 7-10
Experimental: The following study was conducted to evaluate the efficacy of the combination of an ASK1 inhibitor and an FXR agonist in a mouse model of non-alcoholic steatohepatitis (NASH), relative to the efficacy of the individual agents alone in the model. NASH was induced in male C57BL/6 mice by chronic administration of a “fast food” diet (FFD) high in saturated fats, cholesterol and sugars for a total of 10 months, whereas lean control animals were maintained on a normal chow diet. A NASH phenotype was established in FFD mice compared to control mice by 7 months, and was characterized by obesity, hypercholesterolemia, and AST/ALT elevation; and by histological features of NASH such as hepatocellular macrovesicular steatosis and ballooning degeneration. See Charlton M, et al. Fast food diet mouse: novel small animal model of NASH with ballooning, progressive fibrosis, and high physiological fidelity to the human condition. American journal of physiology. Gastrointestinal and liver physiology 2011; 301 (5):G825-34. […] Endpoint analyses included morphometric quantification of liver steatosis (% of steatotic area), liver cholesterol content, serum ALT/AST levels, serum bile acid levels, and nanostring evaluation of gene expression. […] Plasma samples were sent to Metabolon, Inc. (Durham, N.C.) for quantification of primary and secondary bile acids and their conjugates by LC-MS/MS.

Compound | reduction of liver hydroxyproline content [1] | reduction in plasma bile acid levels [2] [%]
O=C(Nc1cccc(-c2nncn2C2CC2)c1)c1cc(-n2cnc(C3CC3)c2)ccn1 [Formula (I)] | did not significantly reduce | 52
O=C(O)c1ccnc(N2CC(O)(c3ccc(OCc4c(-c5c(Cl)cccc5Cl)noc4C4CC4)cc3Cl)C2)c1 [Formula (III)] | did not significantly reduce | 46
